Patent US9315520B2, “2-amino-6-methyl-4,4a,5,6-tetrahydropyrano[3,4-d][1,3]thiazin-8a(8H)-yl-1,3-thiazol-4-yl amides” (Pfizer Inc., priority 2014, dated 2016)
Structures can show the parent of a compound that is named as a salt. Where two headings read alike, the source gives them in different places.

Molecular target: BACE1 (Homo sapiens (Human), UniProt P56817)
Assay: BACE1 Cell-Free Assay (fluorescence polarization)
Assay type: biochemical
Conditions: read-out: BACE1 Cell-free Assay IC50
Source text: This assay measures the inhibition of the beta-secretase enzyme as it cleaves a non-native peptide.
A synthetic APP substrate that can be cleaved by beta-secretase having N-terminal biotin and made fluorescent by the covalent attachment of Oregon Green at the Cys residue is used to assay beta-secretase activity in the presence or absence of the inhibitory compounds. […] The BACE1 enzyme is affinity purified material from conditioned media of CHO-K1 cells that have been transfected with a soluble BACE construct (BACE1deltaTM96His). […] Plates are covered and incubated for 3 hours at 37° C. […] The activity of the beta-secretase enzyme is detected by changes in the fluorescence polarization that occur when the substrate is cleaved by the enzyme.

[1] = geometric mean of 2-4 determinations unless otherwise indicated (b: ≧5; c: single determination)

Chain of BACE1 (P56817 46-457): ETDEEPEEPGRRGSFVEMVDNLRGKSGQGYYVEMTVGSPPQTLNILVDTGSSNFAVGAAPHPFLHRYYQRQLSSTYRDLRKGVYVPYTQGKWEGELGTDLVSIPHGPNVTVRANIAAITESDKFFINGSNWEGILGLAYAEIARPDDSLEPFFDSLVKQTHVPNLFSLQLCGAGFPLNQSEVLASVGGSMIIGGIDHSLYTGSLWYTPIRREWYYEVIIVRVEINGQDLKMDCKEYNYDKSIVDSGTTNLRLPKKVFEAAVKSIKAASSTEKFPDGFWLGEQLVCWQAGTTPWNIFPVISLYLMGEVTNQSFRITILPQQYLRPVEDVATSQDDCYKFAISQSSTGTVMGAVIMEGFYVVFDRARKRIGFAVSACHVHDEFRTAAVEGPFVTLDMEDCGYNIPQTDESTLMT

Row | SMILES | IC50 [1] [µM] | IC50 [µM]
1 | C[C@H]1C[C@H]2CSC(N)=N[C@@]2(c2nc(NC(=O)c3cc(C(F)(F)F)on3)cs2)CO1 [Example 32, N-{2-[(4aR,6S,8aR)-2-amino-6-methyl-4,4a,5,6-tetrahydropyrano[3,4-d][1,3]thiazin-8a(8H)-yl]-1,3-thiazol-4-yl}-5-(trifluoromethyl)-1,2-oxazole-3-carboxamide, trifluoroacetate salt] | 1.4 | –
2 | C[C@H]1C[C@H]2CSC(N)=N[C@@]2(c2nc(NC(=O)c3cn(C4CCC4)cn3)cs2)CO1 [Example 33, N-{2-[(4aR,6S,8aR)-2-amino-6-methyl-4,4a,5,6-tetrahydropyrano[3,4-d][1,3]thiazin-8a(8H)-yl]-1,3-thiazol-4-yl}-1-cyclobutyl-1H-imidazole-4-carboxamide] | 34.1 | –
3 | C[C@H]1C[C@H]2CSC(N)=N[C@@]2(c2nc(NC(=O)c3cc(C4CCC4)nn3C)cs2)CO1 [Example 34, N-{2-[(4aR,6S,8aR)-2-amino-6-methyl-4,4a,5,6-tetrahydropyrano[3,4-d][1,3]thiazin-8a(8H)-yl]-1,3-thiazol-4-yl}-3-cyclobutyl-1-methyl-1H-pyrazole-5-carboxamide] | 1.48 | –
4 | COCc1cc(C(=O)Nc2csc([C@]34CO[C@@H](C)C[C@H]3CSC(N)=N4)n2)no1 [Example 35, N-{2-[(4aR,6S,8aR)-2-amino-6-methyl-4,4a,5,6-tetrahydropyrano[3,4-d][1,3]thiazin-8a(8H)-yl]-1,3-thiazol-4-yl}-5-(methoxymethyl)-1,2-oxazole-3-carboxamide] | 5.86 | –
5 | C[C@H]1C[C@H]2CSC(N)=N[C@@]2(c2nc(NC(=O)c3ccc(=O)n(C)c3)cs2)CO1 [Example 36, N-{2-[(4aR,6S,8aR)-2-amino-6-methyl-4,4a,5,6-tetrahydropyrano[3,4-d][1,3]thiazin-8a(8H)-yl]-1,3-thiazol-4-yl}-1-methyl-6-oxo-1,6-dihydropyridine-3-carboxamide] | 1.41 | –
6 | C[C@H]1C[C@H]2CSC(N)=N[C@@]2(c2nc(NC(=O)c3ccc(OCC(F)F)cn3)cs2)CO1 [Example 37, N-{2-[(4aR,6S,8aR)-2-amino-6-methyl-4,4a,5,6-tetrahydropyrano[3,4-d][1,3]thiazin-8a(8H)-yl]-1,3-thiazol-4-yl}-5-(2,2-difluoroethoxy)pyridine-2-carboxamide, formate salt] | – | 0.485
7 | Cc1nc(C(=O)Nc2csc([C@]34CO[C@@H](C)C[C@H]3CSC(N)=N4)n2)c(C(F)(F)F)o1 [Example 38, N-{2-[(4aR,6S,8aR)-2-amino-6-methyl-4,4a,5,6-tetrahydropyrano[3,4-d][1,3]thiazin-8a(8H)-yl]-1,3-thiazol-4-yl}-2-methyl-5-(trifluoromethyl)-1,3-oxazole-4-carboxamide, trifluoroacetate salt] | 0.145 | –
8 | CCc1cc(C(=O)Nc2csc([C@]34CO[C@@H](C)C[C@H]3CSC(N)=N4)n2)n(C)n1 [Example 39, N-{2-[(4aR,6S,8aR)-2-amino-6-methyl-4,4a,5,6-tetrahydropyrano[3,4-d][1,3]thiazin-8a(8H)-yl]-1,3-thiazol-4-yl}-3-ethyl-1-methyl-1H-pyrazole-5-carboxamide, trifluoroacetate salt] | – | 0.369
9 | C[C@H]1C[C@H]2CSC(N)=N[C@@]2(c2nc(NC(=O)c3cnn(C)n3)cs2)CO1 [Example 40, N-{2-[(4aR,6S,8aR)-2-amino-6-methyl-4,4a,5,6-tetrahydropyrano[3,4-d][1,3]thiazin-8a(8H)-yl]-1,3-thiazol-4-yl}-2-methyl-2H-1,2,3-triazole-4-carboxamide, trifluoroacetate salt] | – | 0.134
10 | Cc1cc(C(=O)Nc2csc([C@]34CO[C@@H](C)C[C@H]3CSC(N)=N4)n2)n(C)n1 [Example 41, N-{2-[(4aR,6S,8aR)-2-amino-6-methyl-4,4a,5,6-tetrahydropyrano[3,4-d][1,3]thiazin-8a(8H)-yl]-1,3-thiazol-4-yl}-1,3-dimethyl-1H-pyrazole-5-carboxamide, trifluoroacetate salt] | 0.364 | –
11 | CCc1nc(C(=O)Nc2csc([C@]34CO[C@@H](C)C[C@H]3CSC(N)=N4)n2)co1 [Example 42, N-{2-[(4aR,6S,8aR)-2-amino-6-methyl-4,4a,5,6-tetrahydropyrano[3,4-d][1,3]thiazin-8a(8H)-yl]-1,3-thiazol-4-yl}-2-ethyl-1,3-oxazole-4-carboxamide, trifluoroacetate salt] | 0.341 | –
12 | C[C@H]1C[C@H]2CSC(N)=N[C@@]2(c2nc(NC(=O)c3ncn(C)n3)cs2)CO1 [Example 43, N-{2-[(4aR,6S,8aR)-2-amino-6-methyl-4,4a,5,6-tetrahydropyrano[3,4-d][1,3]thiazin-8a(8H)-yl]-1,3-thiazol-4-yl}-1-methyl-1H-1,2,4-triazole-3-carboxamide, trifluoroacetate salt] | 0.435 | –
13 | C[C@H]1C[C@H]2CSC(N)=N[C@@]2(c2nc(NC(=O)c3ccc(OC(C)(F)F)cn3)cs2)CO1 [Example 44, N-{2-[(4aR,6S,8aR)-2-amino-6-methyl-4,4a,5,6-tetrahydropyrano[3,4-d][1,3]thiazin-8a(8H)-yl]-1,3-thiazol-4-yl}-5-(1,1-difluoroethoxy)pyridine-2-carboxamide] | 0.185 | –
14 | COc1cnc(C(=O)Nc2csc([C@]34CO[C@@H](C)C[C@H]3CSC(N)=N4)n2)c(C)n1 [Example 46, N-{2-[(4aR,6S,8aR)-2-amino-6-methyl-4,4a,5,6-tetrahydropyrano[3,4-d][1,3]thiazin-8a(8H)-yl]-1,3-thiazol-4-yl}-5-methoxy-3-methylpyrazine-2-carboxamide] | 0.32 | –
15 | COc1cnc(C(=O)Nc2csc([C@]34CO[C@@H](C)C[C@H]3CSC(N)=N4)n2)c(C)c1 [Example 47, N-{2-[(4aR,6S,8aR)-2-amino-6-methyl-4,4a,5,6-tetrahydropyrano[3,4-d][1,3]thiazin-8a(8H)-yl]-1,3-thiazol-4-yl}-5-methoxy-3-methylpyridine-2-carboxamide] | 0.101 | –
16 | C[C@H]1C[C@H]2CSC(N)=N[C@@]2(c2nc(NC(=O)c3ccc(OC(F)F)nc3)cs2)CO1 [Example 48, N-{2-[(4aR,6S,8aR)-2-amino-6-methyl-4,4a,5,6-tetrahydropyrano[3,4-d][1,3]thiazin-8a(8H)-yl]-1,3-thiazol-4-yl}-6-(difluoromethoxy)pyridine-3-carboxamide] | 0.232 | –
17 | Cc1nc(C(=O)Nc2csc([C@]34CO[C@@H](C)C[C@H]3CSC(N)=N4)n2)co1 [Example 49, N-{2-[(4aR,6S,8aR)-2-amino-6-methyl-4,4a,5,6-tetrahydropyrano[3,4-d][1,3]thiazin-8a(8H)-yl]-1,3-thiazol-4-yl}-2-methyl-1,3-oxazole-4-carboxamide] | 0.103 | –
18 | C[C@H]1C[C@H]2CSC(N)=N[C@@]2(c2nc(NC(=O)c3coc(C(F)(F)F)n3)cs2)CO1 [Example 50, N-{2-[(4aR,6S,8aR)-2-amino-6-methyl-4,4a,5,6-tetrahydropyrano[3,4-d][1,3]thiazin-8a(8H)-yl]-1,3-thiazol-4-yl}-2-(trifluoromethyl)-1,3-oxazole-4-carboxamide] | 0.189 | –
19 | Cc1noc(C(=O)Nc2csc([C@]34CO[C@@H](C)C[C@H]3CSC(N)=N4)n2)n1 [Example 51, N-{2-[(4aR,6S,8aR)-2-amino-6-methyl-4,4a,5,6-tetrahydropyrano[3,4-d][1,3]thiazin-8a(8H)-yl]-1,3-thiazol-4-yl}-3-methyl-1,2,4-oxadiazole-5-carboxamide] | 0.098 | –
20 | Cc1nc(C(=O)Nc2csc([C@]34CO[C@@H](C)C[C@H]3CSC(N)=N4)n2)no1 [Example 52, N-{2-[(4aR,6S,8aR)-2-amino-6-methyl-4,4a,5,6-tetrahydropyrano[3,4-d][1,3]thiazin-8a(8H)-yl]-1,3-thiazol-4-yl}-5-methyl-1,2,4-oxadiazole-3-carboxamide] | 0.091 | –
21 | Cc1nc(C(=O)Nc2csc([C@]34CO[C@@H](C)C[C@H]3CSC(N)=N4)n2)c(C)o1 [Example 53, N-{2-[(4aR,6S,8aR)-2-amino-6-methyl-4,4a,5,6-tetrahydropyrano[3,4-d][1,3]thiazin-8a(8H)-yl]-1,3-thiazol-4-yl}-2,5-dimethyl-1,3-oxazole-4-carboxamide] | 0.065 | –
22 | C[C@H]1C[C@H]2CSC(N)=N[C@@]2(c2nc(NC(=O)c3cnc(OCC4CC4)cn3)cs2)CO1 [Example 54, N-{2-[(4aR,6S,8aR)-2-amino-6-methyl-4,4a,5,6-tetrahydropyrano[3,4-d][1,3]thiazin-8a(8H)-yl]-1,3-thiazol-4-yl}-5-(cyclopropylmethoxy)pyrazine-2-carboxamide] | 0.161 | –
23 | C[C@H]1C[C@H]2CSC(N)=N[C@@]2(c2nc(NC(=O)c3cnc(OC4CC4)cn3)cs2)CO1 [Example 55, N-{2-[(4aR,6S,8aR)-2-amino-6-methyl-4,4a,5,6-tetrahydropyrano[3,4-d][1,3]thiazin-8a(8H)-yl]-1,3-thiazol-4-yl}-5-(cyclopropyloxy)pyrazine-2-carboxamide] | 0.519 | –
24 | C[C@@H](F)COc1cnc(C(=O)Nc2csc([C@]34CO[C@@H](C)C[C@H]3CSC(N)=N4)n2)cn1 [Example 56, N-{2-[(4aR,6S,8aR)-2-amino-6-methyl-4,4a,5,6-tetrahydropyrano[3,4-d][1,3]thiazin-8a(8H)-yl]-1,3-thiazol-4-yl}-5-{[(2R)-2-fluoropropyl]oxy}pyrazine-2-carboxamide] | 0.36 | –
25 | C[C@H](F)COc1cnc(C(=O)Nc2csc([C@]34CO[C@@H](C)C[C@H]3CSC(N)=N4)n2)cn1 [Example 57, N-{2-[(4aR,6S,8aR)-2-amino-6-methyl-4,4a,5,6-tetrahydropyrano[3,4-d][1,3]thiazin-8a(8H)-yl]-1,3-thiazol-4-yl}-5-{[(2S)-2-fluoropropyl]oxy}pyrazine-2-carboxamide] | 0.372 | –
